Read-outs that look alike come from different tables or passages of the source.
Experiments:
vaccinia virus = conditions: cited from earlier work
Vero cell culture = conditions: African green monkey
[1] = test system: vaccinia virus (strain Copenhagen); assay: microbe, parasite or virus in culture; assay type: cell-based
orthopoxviruses = conditions: cited from earlier work
[2] = test system: cowpox virus (strain Grishak), CPXV
[3] = test system: mousepox virus—ectromelia (strain K-1), ECTV
[4] = test system: mousepox virus—ectromelia (strain K-1), ECTV; assay: microbe, parasite or virus in culture; conditions: Vero, read-out: IC50 ECTV
[5] = test system: cowpox virus (strain Grishak), CPXV; assay: microbe, parasite or virus in culture; conditions: Vero, read-out: IC50 CPXV
cowpox virus = conditions: cited from earlier work
VARV = conditions: monkey, in vivo; cited from earlier work
[6] = in vivo; cited from earlier work
[7] = in vivo; cited from earlier work; remark: listed apart in the source
ectromelia virus = conditions: mouse, in vivo; cited from earlier work
[8] = Orthopoxvirus vaccinia, Vero, read-out: IC50, 50% virus-inhibiting concentration
[9] = Orthopoxvirus vaccinia, Vero, read-out: pIC50 (converted)

Structure (SMILES) | TC50, 50% cytotoxic concentration (Vero cell culture) [µM] | SI, selectivity index (TC50/IC50) [1] | IC50 [1, 8] [µM] | IC50 [1, 9] [µM] | further results
O=C(CNC1CCCCC1)NC12CC3CC(CC(C3)C1)C2 [compound 2] | – | – | – | – | vaccinia virus inhibitory effects (vaccinia virus): pronounced
O=C(NC12CC3CC(CC(C3)C1)C2)c1ccccc1 [12a] | 105.67 ± 19.14 | 23 | 4.7 ± 0.37 | 4.68 | –
CC1(C)C2CCC1(C)C(NC(=O)c1ccc([N+](=O)[O-])cc1)C2 (stereo not shown) [compound 11] | – | – | – | – | selectivity index (orthopoxviruses): 31,500
O=C(NC1C2CC3CC(C2)CC1C3)c1ccccc1 (stereo not shown) [12b] | 101.33 ± 6.11 | 15 | 6.73 ± 0.17 | 6.76 | –
O=C(NC1C2CC3CC(C2)CC1C3)c1ccc([N+](=O)[O-])cc1 (stereo not shown) [18b, N-(adamantan-2-yl)-4-nitrobenzamide] | 492.00 ± 31.00 | 12,300 | 0.04 ± 0.01 | 0.0398 | SI CPXV (TC50/IC50) [2]: 447; SI ECTV (TC50/IC50) [3]: 1093; IC50 [4]: 0.45 ± 0.22 µM; IC50 [5]: 1.1 ± 0.22 µM
O=C(NC12CC3CC(CC(C3)C1)C2)c1cccc([N+](=O)[O-])c1 [17a, N-(adamantan-1-yl)-3-nitrobenzamide] | 7.75 ± 0.75 | 8 | 0.95 ± 0.03 | 0.955 | –
O=C(N/N=C1/C(=O)Nc2ccccc21)NC1C2CC3CC(C2)CC1C3 (stereo not shown) [compound 1] | – | – | – | – | reduction in vaccinia virus reproduction (vaccinia virus): 42%
O=C(NC1C2CC3CC(C2)CC1C3)c1ccccc1[N+](=O)[O-] (stereo not shown) [16b, N-(adamantan-2-yl)-2-nitrobenzamide] | >100 | – | – | – | –
O=C(NC1C2CC3CC(C2)CC1C3)c1ccc(F)cc1 (stereo not shown) [13b] | 104.00 ± 8.72 | 49 | 2.14 ± 0.13 | 2.14 | –
O=C(NC12CC3CC(CC(C3)C1)C2)c1ccc(F)cc1 [13a] | 347.31 ± 38.98 | 847 | 0.41 ± 0.1 | 0.407 | SI CPXV (TC50/IC50) [2]: 125; SI ECTV (TC50/IC50) [3]: 250; IC50 [4]: 1.39 ± 0.29 µM; IC50 [5]: 2.78 ± 0.42 µM
Brc1ccc(NC2C3CC4CC(C3)CC2C4)cc1 (stereo not shown) [bromantane, reference compound] | – | 2 | 38.8 | 87.1 | IC50 ([1]; read-out: IC50, 50% virus-inhibiting concentration): 38.9 ± 0.49 µM
CN(C)CCOCC(=O)NC12CC3CC(CC(C3)C1)C2 [compound 4, tromantadine] | – | – | – | – | vaccinia virus inhibitory effects (vaccinia virus): pronounced
CC1(C)[C@H]2CC=C(CNC(=O)C34CC5CC(CC(C5)C3)C4)[C@@H]1C2 [compound 7] | – | – | – | – | selectivity index (SI), cowpox virus (cowpox virus): 406; selectivity index (SI), vaccinia virus (vaccinia virus): 1123
Nc1ccn(C[C@@H](CO)OCP(=O)(O)O)c(=O)n1 [cidofovir, Cidofovir, reference compound] | 201.33 ± 60.10 | 26 | 7.63 ± 3.15 | – | efficacy when used after the onset of smallpox lesions (VARV): ineffective; SI CPXV (TC50/IC50) [2]: 9; SI ECTV (TC50/IC50) [3]: 31; IC50 [4]: 6.46 ± 3.1 µM; nephrotoxicity [6]: significant; oral bioavailability [7]: Low; selectivity index (SI), vaccinia virus (vaccinia virus): 12; IC50 [5]: 23.5 ± 2.23 µM
O=C(NC12CC3CC(CC(C3)C1)C2)c1ccc(Cl)cc1 [14a] | 346.00 ± 66.00 | 2662 | 0.13 ± 0.08 | 0.135 | SI CPXV (TC50/IC50) [2]: 653; SI ECTV (TC50/IC50) [3]: 935; IC50 [4]: 0.37 ± 0.33 µM; IC50 [5]: 0.53 ± 0.37 µM
O=C(NC12CC3CC(CC(C3)C1)C2)c1ccc(Br)cc1 [15a] | 415.00 ± 95.00 | 3192 | 0.13 ± 0.08 | 0.129 | SI CPXV (TC50/IC50) [2]: 1038; SI ECTV (TC50/IC50) [3]: 2767; IC50 [4]: 0.15 ± 0.08 µM; IC50 [5]: 0.4 ± 0.24 µM
O=C(NC12CC3CC(CC(C3)C1)C2)c1ccc([N+](=O)[O-])cc1 [18a] | 546.43 ± 23.98 | 18,214 | 0.03 ± 0.01 | 0.0302 | SI CPXV (TC50/IC50) [2]: 3036; SI ECTV (TC50/IC50) [3]: 6071; IC50 [4]: 0.09 ± 0.017 µM; IC50 [5]: 0.18 ± 0.02 µM
O=C(NC1C2CC3CC(C2)CC1C3)c1cccc([N+](=O)[O-])c1 (stereo not shown) [17b, N-(adamantan-2-yl)-3-nitrobenzamide] | 9.50 ± 0.87 | 10 | 0.99 ± 0.19 | 1 | –
O=C1C2C3C=CC(C4CC34)C2C(=O)N1NC(=O)C12CC3CC(CC(C3)C1)C2 (stereo not shown) [compound 6] | – | – | – | – | effective concentration against cowpox virus (cowpox virus): below 0.05 μM; effective concentration against vaccinia virus (vaccinia virus): below 0.05 μM
CCCCCCCCCCCCCCCCOCCCOP(=O)(O)CO[C@H](CO)Cn1ccc(N)nc1=O [CMX001, Brincidofovir] | – | – | – | – | protection against lethal infection with ectromelia virus (ectromelia virus): does not provide a sufficient level of protection
O=C(NC1C2CC3CC(C2)CC1C3)c1ccc(Cl)cc1 (stereo not shown) [14b] | 104.00 ± 8.72 | 578 | 0.18 ± 0.04 | 0.182 | –
O=C(NC1C2CC3CC(C2)CC1C3)c1ccc(Br)cc1 (stereo not shown) [15b] | – | 589 | 0.22 ± 0.07 | 0.219 | IC50 (vaccinia virus; read-out: IC50): 3.06 µM
O=C(NC12CC3CC(CC(C3)C1)C2)c1ccccc1[N+](=O)[O-] [16a, N-(adamantan-1-yl)-2-nitrobenzamide] | >100 | – | – | – | –
CC(=O)N(OCCN(C)C)C12CC3CC(CC(C3)C1)C2 [compound 3] | – | – | – | – | vaccinia virus inhibitory effects (vaccinia virus): pronounced
O=C(NN1C(=O)C2C3C=CC(C4CC34)C2C1=O)c1ccc(F)cc1 (stereo not shown) [compound 19] | – | – | – | – | IC50 (vaccinia virus; read-out: IC50 against vaccinia virus): < 0.05 µM
O=C(NC12CC3CC(CC(C3)C1)C2)c1ccc(C(F)(F)F)cc1 [compound 10] | – | – | – | – | selectivity index (orthopoxviruses): 2325
